Like-named read-outs stand apart in the source and are kept apart here. *1 amine or outer side, *2 acyl side, *3 side chain or, on linkers, in order; H or OH if unused. Where a SMILES comes first, the peptide text is derived from it. Bridges are numbered along the chain shown (N, C = ends). [ ]: non-standard residue; d: D form. ξ: configuration not given here. ξαMeNle(6-ylidene) = CC(CCCC=[*:3])(N[*:1])C(=O)[*:2]; dPhe(4-CF3) = N[C@H](Cc1ccc(C(F)(F)F)cc1)C(=O)O; dTrp(6-F) = N[C@H](Cc1c[nH]c2cc(F)ccc12)C(=O)O
Key:
[1] = test system: Jump-In T-REx CHO-K1 BLA cells; experiment: Tetracycline beta-lactamase reporter gene cellular assay (counterscreen); type: cell-based
Procedure: This assay was based on Jump-In™ T-REx™ CHO-K1 BLA cells containing a stably integrated β-lactamase under the control of an inducible cytomegalovirus (CMV) promoter. Cells were maintained in Dulbecco's Minimal Eagle Medium (DMEM) with 10% fetal bovine serum (FBS), Blasticidin, and Penicillin/Streptomycin and then transferred to 1.5 mL freezing vials and stored under liquid nitrogen in growth media containing 5% DMSO. […] Cells were seeded into a 384-well plate at a density of 4000 cells per well. […] The final working concentration of DMSO was 0.5%. β-lactamase activity was detected using the ToxBLAzer Dual Screen (Invitrogen), as per the manufacturer's instructions. Measurements were carried out using the Envision multiplate reader (PerkinElmer). Counterscreen activity was defined as the amount of β-lactamase activity induced by tetracycline. Measurements were taken a minimum of three times (biological replicates) and values are reported as geometric means of the replicates.

HCT116 = type: cell-based; conditions: for EC50: 72 h; for HCT116 proliferation % Max: 72 hours, 10% serum
From the text: (§1) To further establish the impact of the above modification in making cleaner “drug” like compounds, we profiled a set of compounds of the invention in cellular proliferation assays (Table 3).

p53 null Ca Ski = type: cell-based; conditions: 72 h
From the text: as §1

[2] = test system: p53 responsive β-lactamase reporter in HCT116 cells; experiment: p53 beta-lactamase reporter gene cellular functional assay; type: cell-based
Procedure: HCT116 cells were stably transfected with a p53 responsive β-lactamase reporter and expanded in McCoy's 5A Medium with 10% fetal bovine serum (FBS), Blasticidin, and Penicillin/Streptomycin and then transferred to 1.5 mL freezing vials and stored under liquid nitrogen in growth media containing 5% DMSO. […] The cells were then seeded into a 384-well plate at a density of 8000 cells per well. […] The final working concentration of DMSO was 0.5%. β-lactamase activity was detected using the ToxBLAzer Dual Screen (Invitrogen), as per the manufacturer's instructions. Measurements were made using the Envision multiplate reader (PerkinElmer). […] Measurements were taken a minimum of three times (biological replicates) and values are reported as geometric means of the replicates.

MDM2 (1-125) = molecular target: T1, MDM2 (1-125) (Homo sapiens, UniProt Q00987); experiment: Competitive fluorescence anisotropy assay (FP Kd MDM2); type: binding
T1 construct: GST (N); His6 (N); TEV cleavage site ENLYFQG (N); made in house; host or cells: Escherichia coli BL21 (DE3) Rosetta T1R
T1 sequence (Q00987 with tags, fused parts or gaps): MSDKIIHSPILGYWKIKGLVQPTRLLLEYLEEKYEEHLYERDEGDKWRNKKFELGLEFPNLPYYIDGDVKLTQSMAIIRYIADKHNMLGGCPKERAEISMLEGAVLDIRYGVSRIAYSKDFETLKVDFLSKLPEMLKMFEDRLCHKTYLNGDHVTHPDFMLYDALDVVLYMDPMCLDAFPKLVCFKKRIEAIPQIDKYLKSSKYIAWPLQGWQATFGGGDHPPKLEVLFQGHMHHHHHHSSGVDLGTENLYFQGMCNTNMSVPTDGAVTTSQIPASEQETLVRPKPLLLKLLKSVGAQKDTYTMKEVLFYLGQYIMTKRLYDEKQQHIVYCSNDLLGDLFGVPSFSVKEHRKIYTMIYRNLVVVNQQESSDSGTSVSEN
From the text: For use in the peptide binding assay, a human MDM2 1-125 sequence was cloned into a pNIC-GST vector. The TEV (tobacco etch virus) cleavage site was changed from ENLYFQS (SEQ ID NO: 13) to ENLYFQG (SEQ ID NO: 14) to give a fusion protein with the following sequence:
[P] is the protein concentration (MDM2), [L] is the labeled peptide concentration, r is the anisotropy measured, r0 is the anisotropy of the free peptide, rb is the anisotropy of the MDM2-FAM-labeled peptide complex, Kd is the dissociation constant, [L]t is the total FAM labeled peptide concentration, and [P]t is the total MDM2 concentration. […] These values were then used to determine apparent Kd values of the respective competing ligands in subsequent competition assays in fluorescence anisotropy experiments. MDM2 and MDM4 competition experiments were performed with their respective concentrations held constant at 250 nM and 75 nM, in the presence of 50 nM of FAM-labeled 12/1. The competing molecules were then titrated against the complex of the FAM-labeled peptide and protein. Apparent Kd values were determined by fitting the experimental data to the equations shown below:
[L]st and [L]t denote labeled ligand and total unlabeled ligand input concentrations, respectively. Kd2 is the dissociation constant of the interaction between the unlabeled ligand and the protein.
In all competition experiments, it is assumed that [P]t>[L]st, otherwise considerable amounts of free labeled ligand would always be present and would interfere with measurements. Kd1 is the apparent Kd for the labeled peptide used and has been experimentally determined as described in the previous paragraph. The FAM-labeled peptide was dissolved in dimethyl sulfoxide (DMSO) at 1 mM and diluted into experimental buffer. Readings were carried out with an Envision Multilabel Reader (PerkinElmer). Experiments were carried out in PBS (2.7 mM KCl, 137 mM NaCl, 10 mM Na2HPO4 and 2 mM KH2PO4 (pH 7.4)) and 0.1% Tween-20 buffer. All titrations were carried out in triplicate. Curve-fitting was carried out using Prism 4.0 (GraphPad®). […] Negative control titrations of the ligands under investigation were also carried out with the fluorescently labeled peptide (in the absence of MDM2) to ensure no interactions were occurring between the ligands and the FAM-labeled peptide. […] Measurements were taken a minimum of three times (biological replicates) and values are reported as geometric means of the replicates.

HCT116 cells = type: cell-based; conditions: serum condition not stated; read-out: LDH-release EC50
Procedure: HCT116 cells were stably transfected with a p53 responsive β-lactamase reporter and expanded in McCoy's 5A Medium with 10% fetal bovine serum (FBS), Blasticidin, and Penicillin/Streptomycin and then transferred to 1.5 mL freezing vials and stored under liquid nitrogen in growth media containing 5% DMSO. One day prior the assay, a vial of banked cells was recovered in a cell culture flask and incubated for 24 hours, followed by removal of cell growth media and replacement with Opti-MEM containing 2% FBS. The cells were then seeded into a 384-well plate at a density of 8000 cells per well. […] The final working concentration of DMSO was 0.5%. Lactate dehydrogenase release was detected using the CytoTox-ONE Homogenous Membrane Integrity Assay Kit (Promega), as per the manufacturer's instructions. Measurements were carried out using the Tecan plate reader. Maximum LDH release was defined as the amount of LDH released as induced by the lytic peptide (iDNA79) and used to normalize the results. Measurements were taken a minimum of three times (biological replicates) and values are reported as geometric means of the replicates.

[3] = Helicity stated in text (method not given); type: physicochemical; conditions: aqueous solution for compound 6
[4] = read-out: Counter screen EC50 (0% FBS, 4 h), 0% FBS, 4 h
[5] = read-out: Counter screen EC50 (10% FBS, 16 h), 10% FBS, 16 h
[6] = read-out: p53 activity EC50 (0% FBS, 4 h), 0% FBS, 4 h
[7] = read-out: p53 activity EC50 (10% FBS, 16 h), 10% FBS, 16 h

SMILES | EC50 [1, 4] | EC50 [1, 5] | improvement of cell efficacy in HCT116 proliferation versus compound 2 (HCT116) | EC50 (HCT116) | HCT116 proliferation % Max (HCT116) | EC50 (p53 null Ca Ski) | p53 null Ca Ski proliferation % Max (inhibition at maximum concentration) (p53 null Ca Ski) | overall improvement of cellular activity compared to parent peptide ([2]; 10% serum) | EC50 [2, 6] | EC50 [2, 7] | EC50 ([2]; read-out: p53 activity EC50 (10% FBS, 16 h), 10% FBS, 16 h, listed as compound 4) | Kd (MDM2 (1-125)) | EC50 ([1]; serum condition not stated, read-out: counterscreen EC50) | improvement of p53 reporter gene functional cellular activity ([2]; 0% serum, versus compound 1) | EC50 (HCT116 cells) | chromatographic logD (physchem) | solubility (Solubility (PBS, pH 7)) | helicity [3]
CC(=O)N[C@@H](C(=O)N[C@H](C)C(=O)N[C@H](Cc1c[nH]c2cc(F)ccc12)C(=O)N[C@H](Cc1ccc(O)cc1)C(=O)N[C@H](C)C(=O)NC1(C)CCC/C=C\CCCC(C)(C(=O)N[C@H](CC(C)C)C(=O)N[C@H](CO)C(=O)N[C@H](C)C(=O)N[C@H](C)C(=O)N[C@H](C)C(=O)N[C@H](C)C(=O)N[C@H](C)C(=O)N[C@H](C)C(N)=O)NC(=O)[C@@H](CCC(N)=O)NC(=O)[C@@H](CCC(=O)O)NC(=O)[C@@H](Cc2ccc(C(F)(F)F)cc2)NC1=O)[C@H](C)O (stereo partly drawn) [Compound 4, Acetyl-^DPMI-δ-(6-10 olefinstaple) (D-K9D-Q, D-R12D-S, 6x(D-A)polypeptidetail)-NH2] (Ac-[dT][dA][dTrp(6-F)][dY][dA][ξαMeNle(6-ylidene)][dPhe(4-CF3)][dE][dQ][ξαMeNle(6-ylidene)][dL][dS][dA][dA][dA][dA][dA][dA]-NH2; staple (Z) 6-10) | > 50 µM | > 50 µM | greater than 6 fold | 1.48 µM | 84.5%^ | 31.1 µM | 66% | 100 fold | 0.61 µM | 0.28 µM | 0.3 µM | 0.0032 µM | – | – | – | – | – | –
CC(=O)N[C@@H](C(=O)N[C@H](C)C(=O)N[C@H](Cc1c[nH]c2cc(F)ccc12)C(=O)N[C@H](Cc1ccc(O)cc1)C(=O)N[C@H](C)C(=O)NC1(C)CCC/C=C\CCCC(C)(C(=O)N[C@H](CC(C)C)C(=O)N[C@H](CO)C(N)=O)NC(=O)[C@@H](CCC(N)=O)NC(=O)[C@@H](CCC(=O)O)NC(=O)[C@@H](Cc2ccc(C(F)(F)F)cc2)NC1=O)[C@H](C)O (stereo partly drawn) [Compound 2, Acetyl-^DPMI-δ-(6-10 olefinstaple) (D-K9D-Q, D-R12D-S)-NH2] (Ac-[dT][dA][dTrp(6-F)][dY][dA][ξαMeNle(6-ylidene)][dPhe(4-CF3)][dE][dQ][ξαMeNle(6-ylidene)][dL][dS]-NH2; staple (Z) 6-10) | > 50 µM | > 50 µM | – | 9.1 µM | 80% | 30.4 µM | – | – | 3.6 µM | > 50 µM | – | 0.258 µM | > 50 µM | 3 fold | > 50 µM | – | – | –
CC(=O)N[C@@H](C(=O)N[C@H](C)C(=O)N[C@H](Cc1c[nH]c2cc(F)ccc12)C(=O)N[C@H](Cc1ccc(O)cc1)C(=O)N[C@H](C)C(=O)NC1(C)CCC/C=C\CCCC(C)(C(=O)N[C@H](CC(C)C)C(=O)N[C@H](CO)C(=O)N[C@H](C)C(=O)N[C@H](Cc2ccccc2)C(=O)N[C@H](C)C(=O)N[C@H](C)C(=O)N[C@H](C)C(=O)N[C@H](C)C(N)=O)NC(=O)[C@@H](CCC(N)=O)NC(=O)[C@@H](CCC(=O)O)NC(=O)[C@@H](Cc2ccc(C(F)(F)F)cc2)NC1=O)[C@H](C)O.N (stereo partly drawn) [Compound 6] (Ac-[dT][dA][dTrp(6-F)][dY][dA][ξαMeNle(6-ylidene)][dPhe(4-CF3)][dE][dQ][ξαMeNle(6-ylidene)][dL][dS][dA][dF][dA][dA][dA][dA]-NH2; staple (Z) 6-10) | > 50 µM | > 50 µM | – | – | – | – | – | – | 9.65 µM | 1.75 µM | – | 0.03 µM | – | – | – | 3.06 | 146 µM | about 65%

Source: patent US20250042961A1, “P53 PEPTIDOMIMETIC MACROCYCLES” (MERCK SHARP & DOHME LLC, priority 2021, published 2025)
